# Laboratory results taken from US20090221588A1, “FUNGICIDAL COMPOSITIONS” (SYNGENTA CROP PROTECTION, INC., priority 2006, published 2009).
# Assays:
# Septoria tritici = experiment: Action against Septoria tritici: growth inhibition in nutrient broth, microtiter plate, photometric; format: cell-based; conditions: single active ingredient, 24° C., 72 hrs
# From the text: (§1) The action to be expected E for a given active ingredient combination obeys the so-called COLBY formula and can be calculated as follows (COLBY, S. R. “Calculating synergistic and antagonistic responses of herbicide combination”. Weeds, Vol. 15, pages 20-22; 1967): ppm=milligrams of active ingredient (=a.i.) per liter of spray mixture X=% action by active ingredient A) using p ppm of active ingredient Y=% action by active ingredient B) using q ppm of active ingredient. According to COLBY, the expected (additive) action of active ingredients A)+B) using p+q ppm of active ingredient is If the action actually observed (O) is greater than the expected action (E), then the action of the combination is super-additive, i.e. there is a synergistic effect. In mathematical terms, synergism corresponds to a positive value for the difference of (O-E). In the case of purely complementary addition of activities (expected activity), said difference (O-E) is zero. A negative value of said difference (O-E) signals a loss of activity compared to the expected activity. In the following examples a specific compound of formula (I) was used. Said compound of formula (I) was a mixture of the racemic syn- and anti-compound of formula (I), in a syn/anti-ratio of 9:1. Conidia of the fungus from cryogenic storage are directly mixed into nutrient broth (PDB potato dextrose broth). After placing a (DMSO) solution of the test compounds into a microtiter plate (96-well format) the nutrient broth containing the fungal spores is added. […] The fungicide interactions in the combinations are calculated according to COLBY method.
# [1] = system: Pseudocercosporella herpotrichoides var. acuformis; experiment: Action against Pseudocercosporella herpotrichoides var. acuformis (eyespot/cereals): growth inhibition in nutrient broth, microtiter plate, photometric; format: cell-based; conditions: single active ingredient, 24° C., 72 hrs
# From the text: as §1
SMILES,Observed control in % (% Cobs) (Septoria tritici; 0.063 ppm [mg/L] final medium),Observed control in % (% Cobs) (Septoria tritici; 0.125 ppm [mg/L] final medium),Observed control in % (% Cobs) ([1]; 0.016 ppm [mg/L] final medium),Observed control in % (% Cobs) ([1]; 0.031 ppm [mg/L] final medium),Observed control in % (% Cobs) ([1]; 0.063 ppm [mg/L] final medium)
"CC(C)C1C2CCC1c1c(NC(=O)c3cn(C)nc3C(F)F)cccc12 (racemic) [Cpd I, 3-difluoromethyl-1-methyl-1H-pyrazole-4-carboxylic acid (9-isopropyl-1,2,3,4-tetrahydro-1,4-methano-naphthalen-5-yl)-amide]",26%,52%,12%,40%,67%
"O=C(NCCc1ncc(C(F)(F)F)cc1Cl)c1ccccc1C(F)(F)F [Cpd B-1.1, fluopyram]",6%,0%,1%,3%,14%
